Results from US9896423B2, “Deuterium substituted 1-[2-(2,4-dimethyl-phenylsulfanyl)-phenyl]piperazine compound or derivatives thereof, and pharmaceutical composition and use thereof” (Jiangsu Jibeier Pharmaceutical Co. Ltd., priority 2014, dated 2018).
Values joined by “and” are separate entries in the source; they are usually repeats but may differ in a detail not shown here. Identical values can stand only once. Like-named read-outs stand apart in the source and are kept apart here.

What was measured:
Male ICR mice = test: Mice tail suspension test; format: in vivo
Source text: (§1) The following method is used for testing the antidepression effect of the compound of the present application. ICR mice or SD rats, gavaged for two successive weeks, were subjected to mice swimming test, mice tail suspension test and rats swimming test. See below for details of the tests and results.
The animals, medicaments, calculation of dosages to the mice, preparation of drug solution and apparatus are the same as those in the mice swimming test.
The medicaments were correspondingly administered by gavage, once a day, to the animals in the groups for 14 successive days, with the amount of 0.2 ml per 10 g of body weight. The mice were subjected to tail suspension one hour later after the last oral administration. The suspension continued for 6 min.
(§2) The data was given as “average±standard deviation” (x±s). One-way analysis of variance (ANOVA) was used for data difference statistics. Differences among the groups were determined by P<0.05.

Male SD rats = test: Rats swimming test; format: in vivo
Source text: as §1
Male SD rats weighing 200 to 220 g were used and they were fed with sterilized standard feed. The medicaments were the same as those in the mice tail suspension test, but the dosage administered to rats was half of that to mice.
Drug solution preparation: Since the dosage applied on rats was 1 ml/100 g body weight, the medicament solutions used in this test had the same concentrations as those used on mice.
The apparatus was the same as that in the […].
The rats were fasted for 4 hours, put in a round glass tank (ø 18 cm×h 40 cm, with water of 15 cm depth and at a temperature of 25° C.), and were allowed to swim for 15 min. One tank accommodated one rat at a time. The tank was refilled with clean water for another rat after one rat finished swimming. The rats were dried with a hot-air blower after swimming.
The forty rats were divided into 4 groups, each of which has 10 rats, according to the Excel random grouping.
The medicaments were correspondingly administered 1 ml/100 g body weight by gavage, once a day, to the animals in each test group for 14 successive days. The rat swimming test was performed one hour later after the last administration.
as §2

[1] = Pharmacokinetic test in rats, intravenous injection; format: in vivo, SD rats; details: for Concentrations in Plasma of Rats after Intravenous Injection / concentration at 0.05 h / concentration at 0.133 h / concentration at 4 h / concentration at 6 h / concentration at 9 h / concentration at 12 h / concentration at 24 h: 2 mg/kg iv; for concentration at 0.05 h / concentration at 0.133 h / concentration at 4 h / concentration at 6 h / concentration at 9 h / concentration at 12 h / concentration at 24 h: intravenous
Procedure: The preferred compound of the present disclosure was assessed in rats for its pharmacokinetic profile.
SD rats, male and female, weighing 150 to 250 g
Mobile phase: 10 mM ammonium formate aqueous solution:methanol=15:85
The ionization source was electrospray ionization source. The detection mode was positive mode. Multiple reaction monitoring (MRM) was used as the scanning mode. The ion reaction for the quantitative analysis was the following: m/z was 305.2\150.0 for XX, and 256.1\167.1 for diphenhydramine (the internal standard).
Four male SD rats were taken. The dosage was calculated as 5 mL/kg body weight and 2 mg/kg. XX or YY was dissolved in DMSO (3% of a total volume) and castor oil (3% of the total volume) was added to the solution, followed by agitating with a vortex mixer. Subsequently, saline was added to the mixture to the total volume to afford the intravenous injection for the rats. The injections were intravenously administered to four male SD rats. Blood from the rats' orbits was collected 3 min, 8 min, 15 min, 30 min, 1 hr, 2 hr, 3 hr, 4 hr, 6 hr, 9 hr, 12 hr and 24 hr later after the injection, respectively.
After the blood collection, the tubes were immediately gently turned upside down at least five times to ensure sufficient mixing, and placed on ice. Heparin was added for anticoagulation. The samples were centrifuged at 8000 rpm for 5 min to separate serum from erythrocyte. The serum was transferred with a pipettor to 2 mL polypropylene (PP) tubes, which were marked with the name of the compound and the time points, and stored in a refrigerator at −40° C. before LC-MS analysis. Samples with high concentrations were diluted with rat blank plasma.
2.5 μL of Meth-H2O and 5 μL of the internal standard solution (20 ng/mL, IS) were added to 50 μL of the plasma. Subsequently, 150 μL of methanol was added to the mixture to precipitate protein and the samples were then centrifuged at 13000 rpm for 5 min. The upper organic phase was taken out, filtrated with a 0.22 μM microporous membrane, and 2 μL of the sample was injected for the LC-MS analysis.

Concentrations in Plasma of Rats after Intravenous Injection ([1]; 0.05 h after administration, individual rats): 123.2 ng/mL and 127.2 ng/mL
Concentrations in Plasma of Rats after Intravenous Injection ([1]; 0.133 h, individual rats): 89 ng/mL and 85.9 ng/mL
Concentrations in Plasma of Rats after Intravenous Injection ([1]; 0.25 h, individual rats): 78.8 ng/mL and 77.3 ng/mL
Concentrations in Plasma of Rats after Intravenous Injection ([1]; 0.5 h, individual rats): 76.9 ng/mL and 71.3 ng/mL
Concentrations in Plasma of Rats after Intravenous Injection ([1]; 1 h, individual rats): 73.3 ng/mL and 68.6 ng/mL
Concentrations in Plasma of Rats after Intravenous Injection ([1]; 2 h, individual rats): 69.5 ng/mL and 68.1 ng/mL
Concentrations in Plasma of Rats after Intravenous Injection ([1]; 3 h, individual rats): 53.4 ng/mL and 49.8 ng/mL
Concentrations in Plasma of Rats after Intravenous Injection ([1]; 4 h, individual rats): 38.5 ng/mL and 27.6 ng/mL
Concentrations in Plasma of Rats after Intravenous Injection ([1]; 6 h, individual rats): 28.4 ng/mL and 25.8 ng/mL
Concentrations in Plasma of Rats after Intravenous Injection ([1]; 9 h, individual rats): 16.1 ng/mL and 18.6 ng/mL
Concentrations in Plasma of Rats after Intravenous Injection ([1]; 12 h, individual rats): 7.86 ng/mL and 7.50 ng/mL
Concentrations in Plasma of Rats after Intravenous Injection ([1]; 24 h, individual rats): 2.57 ng/mL and 2.89 ng/mL
concentration at 0.05 h ([1]; male, SD, rat, plasma, 2 mg/kg, 0.05 h, mean, read-out: Concentrations in Plasma of Rats after Intravenous Injection, Mean ± SD): 214 ± 38.9 ng/mL
concentration at 0.05 h ([1]; male, SD, rat, plasma, 2 mg/kg, 0.05 h after administration, individual rats, read-out: Concentrations in Plasma of Rats after Intravenous Injection): 134 ng/mL
concentration at 0.133 h ([1]; male, SD, rat, plasma, 2 mg/kg, 0.133 h, individual rats, read-out: Concentrations in Plasma of Rats after Intravenous Injection): 86.5 ng/mL
concentration at 0.133 h ([1]; male, SD, rat, plasma, 2 mg/kg, 0.133 h, mean, read-out: Concentrations in Plasma of Rats after Intravenous Injection, Mean ± SD): 170 ± 7.8 ng/mL
concentration at 4 h ([1]; male, SD, rat, plasma, 2 mg/kg, 4 h, individual rats, read-out: Concentrations in Plasma of Rats after Intravenous Injection): 27.2 ng/mL
concentration at 4 h ([1]; male, SD, rat, plasma, 2 mg/kg, 4 h, mean, read-out: Concentrations in Plasma of Rats after Intravenous Injection, Mean ± SD): 40.9 ± 3.4 ng/mL
concentration at 6 h ([1]; male, SD, rat, plasma, 2 mg/kg, 6 h, individual rats, read-out: Concentrations in Plasma of Rats after Intravenous Injection): 25.8 ng/mL
concentration at 6 h ([1]; male, SD, rat, plasma, 2 mg/kg, 6 h, mean, read-out: Concentrations in Plasma of Rats after Intravenous Injection, Mean ± SD): 33.1 ± 3.43 ng/mL
concentration at 9 h ([1]; male, SD, rat, plasma, 2 mg/kg, 9 h, individual rats, read-out: Concentrations in Plasma of Rats after Intravenous Injection): 14.9 ng/mL
concentration at 9 h ([1]; male, SD, rat, plasma, 2 mg/kg, 9 h, mean, read-out: Concentrations in Plasma of Rats after Intravenous Injection, Mean ± SD): 19.5 ± 1.49 ng/mL
concentration at 12 h ([1]; male, SD, rat, plasma, 2 mg/kg, 12 h, individual rats, read-out: Concentrations in Plasma of Rats after Intravenous Injection): 8.44 ng/mL
concentration at 12 h ([1]; male, SD, rat, plasma, 2 mg/kg, 12 h, mean, read-out: Concentrations in Plasma of Rats after Intravenous Injection, Mean ± SD): 7.85 ± 0.62 ng/mL
concentration at 24 h ([1]; male, SD, rat, plasma, 2 mg/kg, 24 h, individual rats, read-out: Concentrations in Plasma of Rats after Intravenous Injection): 3.38 ng/mL
concentration at 24 h ([1]; male, SD, rat, plasma, 2 mg/kg, 24 h, mean, read-out: Concentrations in Plasma of Rats after Intravenous Injection, Mean ± SD): 4.07 ± 0.05 ng/mL
AUC(0-inf) ([1]; male, SD, rat, plasma, iv, 2 mg/kg, rats, iv 2 mg/kg, XX n = 4, YY n = 3, read-out: AUC0-∞, Mean ± SD): 654 ± 23.9 ng·h/mL
Compound: Cc1ccc(Sc2ccccc2N2CCNCC2)c(C)c1 [YY, 1-[2-(2,4-dimethyl-phenylsulfanyl)-phenyl]piperazine]
effect on length of time that the tail-suspended mice stopped moving vs blank control (Male ICR mice; 3 mg/kg gavage, two successive weeks): did not shorten
Duration without Move within 6 min (Male ICR mice; mice tail suspension, gavage 14 days, 3 mg/kg, n = 10, x ± s): 284.9 ± 51.2 s
effect on length of time that the rats stopped swimming vs blank control (Male SD rats; 1.5 mg/kg gavage, 14 days): did not shorten
Duration without Move within 5 min (Male SD rats; rats swimming, gavage 14 days, 1.5 mg/kg, n = 10, x ± s): 267.8 ± 27.0 s
